ChEMBL document CHEMBL4414576, “Recent advancements in mechanistic studies and structure activity relationship of FoF1 ATP synthase inhibitor as antimicrobial agent” (Eur J Med Chem, 2019)
Converted amounts (≈) assume the structure as drawn.

Assays:
[1] = Selectivity index, ratio of CC50 for human HepG2 cells to MIC of Mycobacterium tuberculosis H37Rv; format: toxicity
[2] = Inhibition of ATP synthase in Mycobacterium smegmatis; set-up: species or system Mycolicibacterium smegmatis
[3] = tested on: Mycobacterium tuberculosis; assay: Antimicrobial activity against Mycobacterium tuberculosis H37Rv; format: functional, organism-based
Escherichia coli [4] = assay: Inhibition of F1F0-ATP synthase in Escherichia coli after 60 mins relative to control; set-up: concentration or dose not given beside the values
[5] = Inhibition of F1F0-ATP synthase in Escherichia coli after 60 mins
[6] = tested on: Mycobacterium tuberculosis H37Rv; assay: Inhibition of F0F1-ATP synthase in Mycobacterium tuberculosis H37Rv at […] using succinate as substrate preincubated for 10 mins followed by substrate addition by luciferase reporter gene assay relative to control
Escherichia coli [7] = assay: Inhibition of F1F0-ATP synthase in Escherichia coli relative to control; set-up: concentration or dose not given beside the values; conditions: concentration not given here
[8] = Inhibition of F1F0-ATP synthase in Escherichia coli
[9] = Inhibition of ATP synthase in Escherichia coli
[10] = Inhibition of ATP synthase isolates from rat brain cells using succinate as substrate preincubated for 5 mins followed by substrate addition
Escherichia coli [11] = assay: Inhibition of ATP synthase in Escherichia coli relative to control; conditions: concentration not given here
Streptococcus pneumoniae = assay: Antimicrobial activity against Streptococcus pneumoniae ATCC 49619; format: functional
ATP synthase = assay: Inhibition of ATP synthase in Mycobacterium tuberculosis H37Rv; format: protein-complex assay
[12] = tested on: Mycobacterium tuberculosis; assay: Antimicrobial activity against Mycobacterium tuberculosis H37Rv after 5 days; format: functional
Staphylococcus aureus = assay: Antimicrobial activity against Staphylococcus aureus ATCC 29213; format: functional
[13] = Selectivity index, ratio of CC50 for African green monkey Vero cells to IC50 of Mycobacterium tuberculosis H37Rv; format: toxicity; conditions: read-out: Ratio IC50
Mus musculus = species: Mus musculus; assay: Inhibition of mitochondrial ATP synthase isolated from Swiss albino mouse liver at 100 uM using succinate as substrate after 1 hr relative to control
[14] = target: ATP synthase (Mycobacterium tuberculosis) (UniProt P9WPU9+P9WPU5+P9WPU7+P9WPV5+P9WPS1+P9WPV1+P9WPV7+P9WPV3); assay: Inhibition of ATP synthase in Mycobacterium tuberculosis H37Rv whole cell lysate after 18 hrs at 5X of MIC relative to control; format: subcellular
[15] = Selectivity index, ratio of IC50 for ATP synthase in Mycobacterium tuberculosis H37Rv to IC50 for mitochondrial ATP synthase isolated from swiss albino mouse liver

## COc1nc2ccc(Br)cc2cc1[C@@H](c1ccccc1)[C@@](O)(CCN(C)C)c1cccc2ccccc12 [BEDAQUILINE]
[1]
  selectivity ratio: > 20000
[2]
  IC50: 6.47 µM
[3]
  MIC: 3.6 µg/mL (≈ 6.48 µM)

## O=c1c(O)c(-c2ccc(O)cc2)oc2cc(O)cc(O)c12
Escherichia coli [4]
  inhibition: 40 to 60%

## COc1ccc([C@@H]2CC(=O)c3c(O)cc(O[C@@H]4O[C@H](CO[C@@H]5O[C@@H](C)[C@H](O)[C@@H](O)[C@H]5O)[C@@H](O)[C@H](O)[C@H]4O)cc3O2)cc1O
Escherichia coli [4]
  inhibition: 40 to 60%

## NC12CC3CC(CC(C3)C1)C2 [AMANTADINE]
[5]
  IC50: 2500 µM
Escherichia coli [4]
  inhibition: 100%

## CC(N)C12CC3CC(CC(C3)C1)C2 (stereo not given) [RIMANTADINE]
[5]
  IC50: 2000 µM
Escherichia coli [4]
  inhibition: 100%

## COc1cccc(N2CCN(CC(O)COC(c3ccccc3)c3cccc4ccccc34)CC2)c1 (stereo not given)
[6]
  inhibition: 99%

## Oc1cc2cc3ccccc3cc2c(O)c1O
Escherichia coli [7]
  inhibition: 30%

## OC(COC(c1ccccc1)c1cccc2ccccc12)CN1CCN(c2ccccc2)CC1 (stereo not given)
[6]
  inhibition: 91%

## O=[N+]([O-])c1cc(O)ccc1/N=C/c1ccccc1O
Escherichia coli [7]
  inhibition: 100%
[8]
  IC50: 6 µM

## Oc1ccc(/N=C/c2ccccc2O)cc1
Escherichia coli [7]
  inhibition: 100%
[8]
  IC50: 5 µM

## Oc1ccc(/C=C/c2cc(O)cc(O)c2)cc1 [RESVERATROL]
[9]
  IC50: 94 µM
[10]
  IC50: 19 µM
Escherichia coli [11]
  inhibition: 40%

## COc1ccc(CC[C@@](O)(CCN(C)C)[C@@H](c2ccccc2)c2cc3cc(Br)ccc3nc2OC)cc1
Streptococcus pneumoniae
  MIC: 0.25 µg/mL (≈ 0.444 µM)

## COc1cc(/C=C/C(=O)CC(=O)/C=C/c2ccc(O)c(OC)c2)ccc1O [CURCUMIN]
[10]
  IC50: 45 µM

## COc1ccccc1N1CCN(CC(O)COC(c2ccccc2)c2cccc3ccccc23)CC1 (stereo not given)
[6]
  inhibition: 90%

## COc1cc(C2Oc3cc([C@H]4Oc5cc(O)cc(O)c5C(=O)[C@@H]4O)ccc3OC2CO)ccc1O (stereo not given in full) [SILIBININ]
[5]
  IC50: 340 µM
Escherichia coli [4]
  inhibition: 100%

## CCN(CC)Cc1cc(N(c2cc(C)nc3cc(Cl)ccc23)S(=O)(=O)c2ccc(Cl)s2)ccc1O
ATP synthase
  IC50: 0.36 to 1.83 µM
[12]
  MIC: 6.25 µg/mL (≈ 11.4 µM)

## Oc1cccc(/C=N/c2ccccc2O)c1
Escherichia coli [7]
  inhibition: 85%
[8]
  IC50: 9 µM

## O=c1cc(-c2ccc(O)cc2)oc2cc(O)cc(O)c12
Escherichia coli [4]
  inhibition: 40 to 60%

## Oc1cc(O)c2c(c1)OC(c1ccc(O)c(O)c1)C(O)C2 (stereo not given) [CATECHIN]
[5]
  IC50: 4000 µM
Escherichia coli [4]
  inhibition: 100%

## C[C@H]1COc2c(N3CCN(C)CC3)c(F)cc3c(=O)c(C(=O)O)cn1c23.C[C@H]1COc2c(N3CCN(C)CC3)c(F)cc3c(=O)c(C(=O)O)cn1c23.O [LEVOFLOXACIN]
Staphylococcus aureus
  MIC: 0.25 µg/mL

## O=c1c(-c2ccc(O)cc2)coc2cc(O)cc(O)c12
Escherichia coli [4]
  inhibition: 40 to 60%

## O=C(O[C@@H]1Cc2c(O)cc(O)cc2O[C@@H]1c1cc(O)c(O)c(O)c1)c1cc(O)c(O)c(O)c1 [EPIGALOCATECHIN GALLATE]
[10]
  IC50: 17 µM

## O=c1c(O)c(-c2ccc(O)cc2O)oc2cc(O)cc(O)c12 [MORIN]
[5]
  IC50: 70 µM
Escherichia coli [4]
  inhibition: 100%

## O=c1cc(-c2ccc(O)c(O)c2)oc2cc(O)cc(O)c12
Escherichia coli [4]
  inhibition: 0 to 20%

## Oc1cc2cc3ccccc3cc2cc1O
Escherichia coli [7]
  inhibition: 22%

## CCN(CC)Cc1cc(N(c2cc(C)nc3cc(Cl)ccc23)S(=O)(=O)c2ccc(Cl)cc2)ccc1O
ATP synthase
  IC50: 0.36 to 1.83 µM
[12]
  MIC: 6.25 µg/mL (≈ 11.5 µM)

## OC(COC(c1ccccc1)c1cccc2ccccc12)CN1CCN(C(c2ccccc2)c2ccccc2)CC1 (stereo not given)
[6]
  inhibition: 98%

## COc1nc2ccc(Br)cc2cc1[C@H](c1ccccc1)[C@](O)(CCCCN(C)C)CCc1ccccc1
Streptococcus pneumoniae
  MIC: 0.25 µg/mL (≈ 0.445 µM)
Staphylococcus aureus
  MIC: 2 µg/mL (≈ 3.56 µM)

## O=C(CNC1CCCCC1)N(c1ccccc1)c1ccccc1
[3]
  IC50: 14 µM
[13]
  selectivity ratio: 21.1

## O=c1c(O)c(-c2ccccc2)oc2cc(O)cc(O)c12
Escherichia coli [4]
  inhibition: 0 to 20%

## Oc1ccc(/C=N/c2cccc(O)c2)cc1
Escherichia coli [7]
  inhibition: 100%
[8]
  IC50: 9 µM

## CC1(C)CC(=O)C(=CNc2ccccc2O)C(=O)C1
[1]
  selectivity ratio: 20
Mus musculus
  inhibition: 25%
[2]
  IC50: 4 µM
[14]
  inhibition: 15 to 30%
[15]
  Ratio IC50: 11.6
[3]
  MIC: 2 µg/mL (≈ 7.71 µM)

## O=c1c(O)c(-c2ccc(O)c(O)c2)oc2cc(O)cc(O)c12 [QUERCETIN]
[9]
  IC50: 33 µM
Escherichia coli [11]
  inhibition: 80%

## COc1ccc(-c2cc(=O)c3c(O)cc(O[C@@H]4O[C@H](CO[C@@H]5O[C@@H](C)[C@H](O)[C@@H](O)[C@H]5O)[C@@H](O)[C@H](O)[C@H]4O)cc3o2)cc1O
Escherichia coli [4]
  inhibition: 40 to 60%

## CCN(CC)Cc1cc(N(c2cc(C)nc3cc(Cl)ccc23)S(=O)(=O)c2cc(C)cc(C)c2)ccc1O
ATP synthase
  IC50: 0.36 to 1.83 µM
[12]
  MIC: 6.25 µg/mL (≈ 11.6 µM)

## O=c1cc(-c2ccccc2)oc2cc(O)c(O)c(O)c12 [BAICALEIN]
[5]
  IC50: 290 µM
Escherichia coli [4]
  inhibition: 100%

## Oc1cccc(/N=C/c2ccccc2O)c1
Escherichia coli [7]
  inhibition: 85%
[8]
  IC50: 5.25 µM

## Oc1cccc(O)c1
Escherichia coli [7]
  inhibition: 20%

## NNC(=O)c1ccncc1
[6]
  inhibition: 99%

## COc1nc2ccc(Br)cc2cc1[C@H](c1ccccc1)[C@](O)(CCCCN1CCN(C)CC1)CCc1ccccc1
Streptococcus pneumoniae
  MIC: 0.25 µg/mL (≈ 0.405 µM)
Staphylococcus aureus
  MIC: 1 µg/mL (≈ 1.62 µM)

## O=c1c(O[C@@H]2O[C@H](CO)[C@@H](O)[C@H](O)[C@H]2O)c(-c2ccc(O)c(O)c2)oc2cc(O)cc(O)c12 [ISOQUERCETIN]
[9]
  IC50: 71 µM
Escherichia coli [11]
  inhibition: 40%

## CCN(CC)Cc1cc(N(c2cc(C)nc3cc(Cl)ccc23)S(=O)(=O)c2ccc(Cl)cc2Cl)ccc1O
ATP synthase
  IC50: 0.36 to 1.83 µM
[12]
  MIC: 3.12 µg/mL (≈ 5.39 µM)

## O=C(CNC1CCCC1)N(c1ccccc1)c1ccccc1
[3]
  IC50: 10.4 µM
[13]
  selectivity ratio: 24

## Oc1cc(O)cc(/C=C/c2ccc(O)c(O)c2)c1 [PICEATANNOL]
[9]
  IC50: 14 µM
[10]
  IC50: 8 µM
Escherichia coli [11]
  inhibition: 100%

## Oc1ccccc1/C=N/c1ccccc1O
Escherichia coli [7]
  inhibition: 95%
[8]
  IC50: 7 µM

## O=[N+]([O-])c1ccc(/N=C/c2ccccc2O)c(O)c1
Escherichia coli [7]
  inhibition: 100%
[8]
  IC50: 5 µM

## O=c1c(-c2ccc(O)cc2)coc2cc(O)ccc12
Escherichia coli [4]
  inhibition: 0 to 20%

## Oc1cccc(/C=N/c2cccc(O)c2)c1
Escherichia coli [7]
  inhibition: 100%
[8]
  IC50: 2.25 µM

## O=c1cc(-c2ccccc2)oc2cc(O)cc(O)c12
Escherichia coli [4]
  inhibition: 40 to 60%

## CCN(CC)Cc1cc(N(c2cc(C)nc3cc(Cl)ccc23)S(=O)(=O)c2cccc(Cl)c2Cl)ccc1O
ATP synthase
  IC50: 0.36 to 1.83 µM
[12]
  MIC: 3.12 µg/mL (≈ 5.39 µM)

## Oc1ccccc1O
Escherichia coli [7]
  inhibition: 40%

## CC[C@H](C)[C@H](NC(=O)CN)C(=O)NCC(=O)N[C@@H](C)C(=O)N[C@H](C(=O)N[C@@H](CC(C)C)C(=O)N[C@@H](CCCCN)C(=O)N[C@H](C(=O)N[C@@H](CC(C)C)C(=O)N[C@H](C(=O)N[C@H](C(=O)NCC(=O)N[C@@H](CC(C)C)C(=O)N1CCC[C@H]1C(=O)N[C@@H](C)C(=O)N[C@@H](CC(C)C)C(=O)N[C@H](C(=O)N[C@@H](CO)C(=O)N[C@@H](Cc1c[nH]c2ccccc12)C(=O)N[C@H](C(=O)N[C@@H](CCCCN)C(=O)N[C@@H](CCCNC(=N)N)C(=O)N[C@@H](CCCCN)C(=O)N[C@@H](CCCNC(=N)N)C(=O)N[C@@H](CCC(N)=O)C(=O)N[C@@H](CCC(N)=O)C(N)=O)[C@@H](C)CC)[C@@H](C)CC)[C@@H](C)O)[C@@H](C)O)C(C)C)C(C)C
Escherichia coli [7]
  inhibition: 78%

## Oc1ccc(O)cc1
Escherichia coli [7]
  inhibition: 80%

## COc1nc2ccc(Br)cc2cc1[C@H](c1cc(F)ccc1F)[C@](O)(CCCCN(C)C)c1ccccc1
Streptococcus pneumoniae
  MIC: 0.25 µg/mL (≈ 0.439 µM)
Staphylococcus aureus
  MIC: 1 µg/mL (≈ 1.76 µM)

## CCN(CC)Cc1cc(N(c2cc(C)nc3cc(Cl)ccc23)S(=O)(=O)c2ccc([N+](=O)[O-])cc2)ccc1O
ATP synthase
  IC50: 0.36 to 1.83 µM
[12]
  MIC: 6.25 µg/mL (≈ 11.3 µM)

## SILYMARIN
[5]
  IC50: 110 µM

## C[C@@H]1O[C@@H](OC[C@H]2O[C@@H](Oc3c(-c4ccc(O)c(O)c4)oc4cc(O)cc(O)c4c3=O)[C@H](O)[C@@H](O)[C@@H]2O)[C@H](O)[C@H](O)[C@H]1O
Escherichia coli [4]
  inhibition: 40 to 60%
